The source of these data is ChEMBL document CHEMBL1142450, “3-(Imidazolyl methyl)-3-aza-bicyclo[3.1.0]hexan-6-yl)methyl ethers: a novel series of mGluR2 positive allosteric modulators” (Bioorg Med Chem Lett, 2008).

The term bioavailability denotes dose-corrected exposure relative to a reference, in per cent. Lower therefore signals poor availability.

Holding throughout (type): ADME, organism-based
A short description of series [1]: Ratio of drug level in brain to plasma in Sprague-Dawley rat at 10 mg/kg, sc. Also on record: dose 10 mg/kg, route subcutaneous. The conditions noted are these: brain and plasma, read-out: BPR.
Series [2] in a line: Fraction absorbed in Sprague-Dawley rat at 5 mg/kg, po. Also on record: dose 5 mg/kg, route oral. The conditions noted are these: in vivo, read-out: Fabs.
Series [3] in a line: Oral bioavailability in Sprague-Dawley rat at 5 mg/kg. The conditions noted are these: in vivo.

In the case of `Cn1c(CN2C[C@@H]3C(COc4ccccc4)[C@@H]3C2)nc2ccccc21` (stereo partly drawn), the Kp in series [1] worked out at 2. Moreover, the Fa in series [2] worked out at 5%. Also, the bioavailability in series [3] is less than 2%.

With `Cn1c(CN2C[C@@H]3C(COc4cccc(Cl)c4)[C@@H]3C2)nc2ncccc21` (stereo partly drawn), the Fa in series [2] stood at 84%. In series [3], this compound registered a bioavailability of 79%.

For `Cn1c(CN2C[C@@H]3C(COc4ccc(Cl)cn4)[C@@H]3C2)nc2ccccc21` (stereo partly drawn), in series [2], the Fa was 72%. In series [3], the bioavailability was found to be 20%.

`Cn1c(CN2C[C@@H]3C(COc4ccc(C(F)(F)F)cn4)[C@@H]3C2)nc2ccccc21` (stereo partly drawn): the bioavailability in series [3] came to 27%.
